In USRE46511E1, “Fused pyrimidine derivatives for inhibition of tyrosine kinase activity” (HANMI SCIENCE CO., LTD., priority 2010, dated 2017):
Where two headings read alike, the source gives them in different places.

Experiments:
Assay type in all cases: cell-based
[1] = test system: NCI-H1975 (EGFR L858R/T790M); assay: Inhibition test for growth of cancer cell expressing EGFR (MTS), NCI-H1975; conditions: Homo sapiens, read-out: GI50 NCI-H1975 EGFR L858R/T790M
[2] = test system: A431 (EGFR WT); assay: Inhibition test for growth of cancer cell expressing EGFR (SRB), A431; conditions: Homo sapiens, read-out: GI50 A431 EGFR WT;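 also: cells in 96-well plates exposed to tenfold serial dilutions from 100 µM down to 10^−6 µM, DMSO under 1%, SRB staining read as absorbance at 540 nm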
Experimental: (§1) A431 cell line was incubated in a high-glucose DMEM (Dulbecco's Modified Eagle's Medium) supplemented with 10% fetal bovine serum (FBS) and 1% penicillin/streptomycin (Gibco BRL), and HCC827 and NCI-H1975 cell lines were incubated in an RPMI medium supplemented with 10% FBS, 1% penicillin/streptomycin and 1% sodium pyruvate.
(§2) The cancer cell lines stored in a liquid nitrogen tank were each quickly thawed at 37° C., and centrifuged to remove the medium. The resulting cell pellet was mixed with a culture medium, incubated in a culture flask at 37° C. under 5% CO2 for 2 to 3 days, and the medium was removed. The remaining cells were washed with DPBS (Dulbecco's Phosphate Buffered Saline) and separated from the flask by using Tripsin-EDTA. […] 100 μl of the diluted cell solution was added to each well of a 96-well plate, and incubated at 37° C. under 5% CO2 for 1 day.
(§3) In case that the test compound was not soluble in DMSO, 1% HCl was added thereto and treated in a 40° C. water bath for 30 mins until a complete dissolution was attained. The DMSO solution containing test compound was diluted with a culture medium to a final concentration of 100 μM, and then diluted 10 times serially to 10^−6 μM (a final concentration of DMSO was less than 1%).
(§4) The medium was removed from each well of the 96-well plate. And then, 100 μl of a test compound solution was added to each well holding the cultured cells, and the plate was incubated at 37° C. under 5% CO2 for 72 hours (except that NCI-H1975 cells were incubated for 48 hours). After removing the medium from the plate, 50 μA of 10% trichloroacetic acid was added to each well, and the plate was kept at 4° C. for 1 hour to fix the cells to the bottom of the plate. The added 10% trichloroacetic acid solution was removed from each well, the plate was dried, 100 μA of an SRB (Sulforhodamine-B) dye solution at a concentration of 0.4% dissolved in 1% acetic acid was added thereto, and the resulting mixture was reacted for 10 mins at room temperature. After removing the dye solution, the plate was washed with water, and well dried. When the dye solution was not effectively removed by water, 1% acetic acid was used. 150 μA of 10 mM trisma base was added to each well, and the absorbance at 540 nm wavelength was determined with a microplate reader.

[3] = test system: HCC827 (EGFR DelE746_A750); assay: Inhibition test for growth of cancer cell expressing EGFR (SRB), HCC827; conditions: Homo sapiens, HCC827, 72 h, read-out: GI50 HCC827 EGFR DelE746_A750;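 also: cells in 96-well plates exposed to tenfold serial dilutions from 100 µM, fixed with trichloroacetic acid, SRB-stained, absorbance read at 540 nm, DMSO under 1%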
Experimental: as §1, §2, §3, §4

[4] = A-431, A431 cells, 72 hours, SRB

| Structure (SMILES) | GI50 ([1]; NCI-H1975 cells, 48 hours, MTS) [nM] | GI50 [2, 4] [nM] | GI50 ([3]; HCC827 cells, 72 hours, SRB) [nM] | GI50 ([1]; NCI-H1975, 48 h) [nM] | GI50 ([2]; A-431, 72 h) [nM] | GI50 [3] [nM] |
| --- | --- | --- | --- | --- | --- | --- |
| C=CC(=O)Nc1cccc(Oc2nc(Nc3ccc(N4CCN(C)CC4)cn3)nc3ccsc23)c1 [Example 167, N-(3-(2-(5-(4-methylpiperazin-1-yl)piridin-2-ylamino)thieno[3,2-d]pyrimidin-4-yloxy)phenyl)acrylamide] | < 50 | > 1000 | < 50 |  |  |  |
| C=CC(=O)Nc1cccc(Oc2nc(Nc3ccc(N4CCN(C)CC4)cc3F)nc3ccsc23)c1 [Example 4] | 50 to 100 | > 1000 | 50 to 100 |  |  |  |
| C=CC(=O)Nc1cccc(Oc2nc(Nc3ccc(N4CCN(C)CC4)c(C)c3)nc3ccsc23)c1 [Example 8] | < 50 | > 1000 | < 50 |  |  |  |
| C=CC(=O)Nc1cccc(Oc2nc(Nc3ccc4c(c3)CCN4C(=O)CN(C)C)nc3ccsc23)c1 [Example 109] | < 50 | > 1000 | < 50 |  |  |  |
| C=CC(=O)Nc1cccc(Oc2nc(Nc3ccc(N4CCN(CC)CC4)cc3OC)nc3ccsc23)c1 [Example 112] | < 50 | > 1000 | < 50 |  |  |  |
| C=CC(=O)Nc1cccc(Oc2nc(Nc3ccc(N4CCN(S(C)(=O)=O)CC4)c(F)c3)nc3ccsc23)c1 [Example 120] | < 50 | > 1000 | < 50 |  |  |  |
| C=CC(=O)Nc1cccc(Oc2nc(Nc3ccc4c(c3)NCCOC4)nc3ccsc23)c1 [Example 107] | < 50 | > 1000 | < 50 |  |  |  |
| C=CC(=O)Nc1cccc(Oc2nc(Nc3ccc(N4CC[S+]([O-])CC4)cc3)nc3ccsc23)c1 [Example 31] | < 50 | > 1000 | < 50 |  |  |  |
| CS(=O)(=O)CCNCc1ccc(-c2ccc3ncnc(Nc4ccc(OCc5cccc(F)c5)c(Cl)c4)c3c2)o1 [Lapatinib, lapatinib, reference compound] |  |  |  | > 1000 | 50 to 100 | 100 to 1000 |
| C=CC(=O)Nc1cccc(Oc2nc(Nc3ccc(CN4CCCC4)cc3)nc3ccsc23)c1 [Example 176] | < 50 | > 1000 | < 50 |  |  |  |
| C=CC(=O)Nc1cccc(Oc2nc(Nc3ccc(C[S+](C)[O-])cc3)nc3ccsc23)c1 (stereo not shown) [Example 94] | < 50 | > 1000 | < 50 |  |  |  |
| C=CC(=O)Nc1cccc(Oc2nc(Nc3ccc(CN4CCN(CC5CC5)CC4)cc3)nc3ccsc23)c1 [Example 185] | < 50 | > 1000 | < 50 |  |  |  |
| C=CC(=O)Nc1cccc(Oc2nc(Nc3ccc(N4CCN(CC)CC4)cc3)nc3ccsc23)c1 [Example 10] | < 50 | 100 to 1000 | < 50 |  |  |  |
| C=CC(=O)Nc1cccc(Nc2nc(Nc3ccc(N4CCN(C(C)C)CC4)cc3)nc3ccsc23)c1 [Example 208] | < 50 |  | < 50 |  |  |  |
| C=CC(=O)Nc1cccc(Oc2nc(Nc3ccc(C(=O)NCCN4CCCC4)cc3OC)nc3ccsc23)c1 [Example 117] | 50 to 100 |  | < 50 |  |  |  |
| C=CC(=O)Nc1cccc(Oc2nc(Nc3ccc(OCCN(CC)CC)c(F)c3)nc3ccsc23)c1 [Example 133] | < 50 |  | < 50 |  |  |  |
| C=CC(=O)Nc1cccc(Oc2nc(Nc3ccc(N4CCC(C(=O)N(C)C)CC4)cc3)nc3ccsc23)c1 [Example 45] | < 50 |  | < 50 |  |  |  |
| C=CC(=O)Nc1cccc(Nc2nc(Nc3ccc(CN4CCCCC4)cc3)nc3ccsc23)c1 [Example 221] | < 50 |  | < 50 |  |  |  |
| C=CC(=O)Nc1cccc(Nc2nc(Nc3ccc(NC4CCN(C)CC4)c(F)c3)nc3ccsc23)c1 [Example 217] | 50 to 100 |  | < 50 |  |  |  |
| C=CC(=O)Nc1cccc(Oc2nc(Nc3ccc(N4CCN(CCO)CC4)cc3)nc3ccsc23)c1 [Example 18] | < 50 |  | < 50 |  |  |  |
| C=CC(=O)Nc1cccc(Nc2nc(Nc3ccc(CCN4CCN(C)CC4)cc3)nc3ccsc23)c1 [Example 214] | < 50 |  | 50 to 100 |  |  |  |
| C=CC(=O)Nc1cccc(Oc2nc(Nc3ccc(N4CC(C)N(C)C(C)C4)cc3)nc3ccsc23)c1 (stereo not shown) [Example 27] | < 50 |  | < 50 |  |  |  |
| C=CC(=O)Nc1cccc(Oc2nc(Nc3ccc(CCS(C)(=O)=O)cc3)nc3ccsc23)c1 [Example 97] | < 50 |  | 50 to 100 |  |  |  |
| C=CC(=O)Nc1cccc(Oc2nc(Nc3ccc(N4CCN(C)CC4)c(F)c3OC)nc3ccsc23)c1 [Example 6] | < 50 |  | 50 to 100 |  |  |  |

| Structure (SMILES) | GI50 ([1]; NCI-H1975 cells, 48 hours, MTS) [nM] | GI50 [2, 4] [nM] | GI50 ([3]; HCC827 cells, 72 hours, SRB) [nM] | GI50 ([1]; NCI-H1975, 48 h) [nM] | GI50 ([2]; A-431, 72 h) [nM] | GI50 [3] [nM] |
| --- | --- | --- | --- | --- | --- | --- |
| C=CC(=O)Nc1cccc(Oc2nc(Nc3ccc(N4CCN(CCF)CC4)cc3)nc3ccsc23)c1 [Example 14] | 50 to 100 |  | < 50 |  |  |  |
| C=CC(=O)Nc1cccc(Nc2nc(Nc3ccc(OCCCN(C)C)cc3)nc3ccsc23)c1 [Example 212] | 50 to 100 |  | 50 to 100 |  |  |  |
| C=CC(=O)Nc1cccc(Oc2nc(Nc3ccc(N4CCC(n5ccnc5)C4)cc3)nc3ccsc23)c1 (stereo not shown) [Example 35] | < 50 |  | < 50 |  |  |  |
| C=CC(=O)Nc1cccc(Oc2nc(Nc3ccc(C4CCN(C)CC4)cc3OC)nc3ccsc23)c1 [Example 114] | < 50 |  | 50 to 100 |  |  |  |
| C=CC(=O)Nc1cccc(Oc2nc(Nc3ccc(C(=O)NC)cc3)nc3ccsc23)c1 [Example 78] | 50 to 100 |  | 50 to 100 |  |  |  |
| C=CC(=O)Nc1cccc(Oc2nc(Nc3ccc(CN4CCN(C5CCN(C)CC5)CC4)c(Cl)c3)nc3ccsc23)c1 [Example 202] | < 50 |  | 50 to 100 |  |  |  |
| C=CC(=O)Nc1cccc(Oc2nc(Nc3ccc(N4CCN(CCO)CC4)cn3)nc3ccsc23)c1 [Example 156] | 50 to 100 |  | < 50 |  |  |  |
| C=CC(=O)Nc1cccc(Oc2nc(Nc3ccc(O)cc3)nc3ccsc23)c1 [Example 60] | 100 to 1000 |  | 100 to 1000 |  |  |  |
| C=CC(=O)Nc1cccc(Oc2nc(Nc3ccc(N4CCC(N5CCOCC5)CC4)c(F)c3)nc3ccsc23)c1 [Example 126] | < 50 |  | < 50 |  |  |  |
| C=CC(=O)Nc1cccc(Oc2nc(Nc3ccc(CN4CCN(C)CC4)c(F)c3)nc3ccsc23)c1 [Example 197] | < 50 |  | < 50 |  |  |  |
| C=CC(=O)Nc1cccc(Oc2nc(Nc3ccc(N4CCN(CC(F)F)CC4)cc3)nc3ccsc23)c1 [Example 15] | < 50 |  | < 50 |  |  |  |
| C=CC(=O)Nc1cccc(Oc2nc(Nc3ccc(N4CCC(n5ccnc5)CC4)cc3)nc3ccsc23)c1 [Example 46] | < 50 |  | < 50 |  |  |  |
| C=CC(=O)Nc1cccc(Oc2nc(Nc3ccc(CN4CCC(N(C)C)CC4)c(F)c3)nc3ccsc23)c1 [Example 196] | 50 to 100 |  | < 50 |  |  |  |
| C=CC(=O)Nc1cccc(Oc2nc(Nc3ccc4c(c3)OCCO4)nc3ccsc23)c1 [Example 106] | < 50 |  | 50 to 100 |  |  |  |
| C=CC(=O)Nc1cccc(Oc2nc(Nc3ccc(-n4ccnc4)cc3)nc3ccsc23)c1 [Example 56] | < 50 |  | 50 to 100 |  |  |  |
| C=CC(=O)Nc1cccc(Oc2nc(Nc3ccc(C(=O)N(C)C)cc3)nc3ccsc23)c1 [Example 84] | 50 to 100 |  | 50 to 100 |  |  |  |
| C=CC(=O)Nc1cccc(Oc2nc(Nc3ccc(OCCN4CCN(C)CC4)c(F)c3)nc3ccsc23)c1 [Example 134] | < 50 |  | < 50 |  |  |  |
| C=CC(=O)Nc1cccc(Oc2nc(Nc3ccc(C4CCN(C)CC4)c(F)c3)nc3ccoc23)c1 [Example 235] | < 50 |  | < 50 |  |  |  |
| C=CC(=O)Nc1cccc(Oc2nc(Nc3ccc(C(=O)N(C)C)c(Cl)c3)nc3ccsc23)c1 [Example 143] | < 50 |  | 50 to 100 |  |  |  |
| C=CC(=O)Nc1cccc(Oc2nc(Nc3ccc(CN4CCC4)cc3)nc3ccsc23)c1 [Example 175] | < 50 |  | < 50 |  |  |  |
| C=CC(=O)Nc1cccc(Oc2nc(Nc3ccc(OCCN(C)C)c(F)c3)nc3ccsc23)c1 [Example 132] | < 50 |  | < 50 |  |  |  |
| C=CC(=O)Nc1cccc(Oc2nc(Nc3ccc(N4CCN(S(=O)(=O)CC)CC4)c(F)c3)nc3ccsc23)c1 [Example 121] | < 50 |  | 50 to 100 |  |  |  |
| C=CC(=O)Nc1cccc(Oc2nc(Nc3ccc(C(C)=O)cc3)nc3ccsc23)c1 [Example 77] | < 50 |  | < 50 |  |  |  |
| C=CC(=O)Nc1cccc(Oc2nc(Nc3ccc(C4(N)CC4)cc3)nc3ccsc23)c1 [Example 160] | < 50 |  | < 50 |  |  |  |
